Test results reported in patent US12036230B2, “PTEN inhibitors for treatment and prevention of bone marrow loss” (NISIBIS, LLC-S, priority 2020, dated 2024).
pIC50: −log10 of the molar value. Read-outs that look alike come from different tables or passages of the source. Numbered stars: 1 amine (or outer) side, 2 acyl side, 3 side chain; on linkers, the order of the positions; unused ones are H or OH. Bridge positions count the residues as written; N and C are the ends. Square brackets hold non-standard residues; d marks the D form. Peptide text beside a SMILES is read from it. Orn = NCCC[C@H](N)C(=O)O; X1 = O=C(CCC[*:2])[*:1]; Mpa = O=C(O)CCS

Target: T1, Human recombinant PTEN (Homo sapiens, UniProt P60484)
T1 construct: host or cells: Escherichia coli
T1 sequence (P60484 whole entry): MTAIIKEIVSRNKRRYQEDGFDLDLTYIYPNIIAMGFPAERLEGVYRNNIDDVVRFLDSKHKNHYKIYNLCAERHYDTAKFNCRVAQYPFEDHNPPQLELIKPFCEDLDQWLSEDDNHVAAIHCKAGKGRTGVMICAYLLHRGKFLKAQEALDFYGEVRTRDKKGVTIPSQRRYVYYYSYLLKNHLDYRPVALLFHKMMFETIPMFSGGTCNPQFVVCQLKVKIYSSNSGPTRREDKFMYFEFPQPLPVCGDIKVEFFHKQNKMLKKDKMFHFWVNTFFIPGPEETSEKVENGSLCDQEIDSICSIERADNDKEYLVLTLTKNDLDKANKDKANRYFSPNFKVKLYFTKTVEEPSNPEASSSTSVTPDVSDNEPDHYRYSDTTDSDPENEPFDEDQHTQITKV
Experiment: PTEN inhibitor screen: conversion of DiFMUP to DiFMU by recombinant PTEN, spectrofluorometric
Format: biochemical
Method: Candidate PTEN inhibitor compounds were identified and screened for PTEN inhibition in vitro. Human recombinant PTEN purified from Escherichia coli was assayed for conversion of synthetic phosphotyrosine analog 6,8-difluoro-4-methylumbelliferyl phosphate (DiFMUP) to 6,8-difluoro-7-hydroxy-4-methylcoumarin (DiFMU) in the presence of the various candidate PTEN inhibitors. The reaction was carried out at 37° C. for 1 hour in a reaction mixture containing 100 μM of DiFMUP, 50 mM Tris-HCl (pH 8.5), 0.01% bovine serum albumin, 1 mM dithiothreitol, and 2 mM ethylenediaminetetraacetic acid. PTEN activity was measured by spectrofluorometric quantitation of increasing DiFMU over time.

[1] = 100 μM DiFMUP, 37° C., 1 hour, pH 8.5, read-out: IC50
[2] = candidate PTEN inhibitor at 10 μM, 100 μM DiFMUP, 37° C., 1 hour, pH 8.5
[3] = candidate PTEN inhibitor at 10 μM, 100 μM DiFMUP, 37° C., 1 hour, pH 8.5, read-out: % Inhibition

| Molecule | pIC50 [1] | % Inhibition [2] [%] | inhibition at 10 µM [3] [%] | pIC50 | inhibition at 10 µM (pH 8.5) [%] |
| --- | --- | --- | --- | --- | --- |
| Clc1ccc(C(c2ccccc2Cl)C(Cl)Cl)cc1 (stereo not shown) [mitotane] | < 5.00 |  | 13 |  |  |
| Cc1cc2nc3c(=O)[nH]c(=O)nc-3n(C[C@H](O)[C@H](O)[C@H](O)COP(=O)(O)OP(=O)(O)OC[C@H]3O[C@@H](n4cnc5c(N)ncnc54)[C@H](O)[C@@H]3O)c2cc1C [flavin adenine dinucleotide] | < 5.00 |  | 13 |  |  |
| CCC1=C[C@@H]2CN(C1)Cc1c([nH]c3ccccc13)[C@@](C(=O)OC)(c1cc3c(cc1OC)N(C)[C@H]1[C@@](O)(C(=O)OC)[C@H](OC(C)=O)[C@]4(CC)C=CCN5CC[C@]31[C@@H]54)C2 [vinorelbine] | < 5.00 |  | 19 |  |  |
| COc1ccc(CC2c3cc(OC)c(OC)cc3CC[N+]2(C)CCC(=O)OCCCCCOC(=O)CC[N+]2(C)CCc3cc(OC)c(OC)cc3C2Cc2ccc(OC)c(OC)c2)cc1OC (stereo not shown) [atracurium besylate] | < 5.00 |  | 16 |  |  |
| CCOc1ccc(C[C@H]2NC(=O)CCSSC[C@@H](C(=O)N3CCC[C@H]3C(=O)N[C@@H](CCCN)C(=O)NCC(N)=O)NC(=O)[C@H](CC(N)=O)NC(=O)[C@H]([C@@H](C)O)NC(=O)[C@H]([C@@H](C)CC)NC2=O)cc1 [atosiban] ([Mpa][dY](Et)ITNCP[Orn]G-NH2; disulfide 1-6) |  |  | 12 | < 5.00 |  |
| C=C1CC[C@H]2[C@@H](/C=C(\C)C(=O)[C@@]3(OC(C)=O)C[C@H](C)[C@H](OC(=O)c4ccccc4)[C@@H]3[C@H]1OC(C)=O)C2(C)C [diacetyl benzoyl lathyrol] | < 5.00 | 25 |  |  |  |
| CO[C@H]1C[C@@H]2CC[C@@H](C)[C@@](O)(O2)C(=O)C(=O)N2CCCC[C@H]2C(=O)O[C@H]([C@H](C)C[C@@H]2CC[C@@H](O)[C@H](OC)C2)CC(=O)[C@H](C)/C=C(\C)[C@@H](O)[C@@H](OC)C(=O)[C@H](C)C[C@H](C)/C=C/C=C/C=C/1C [sirolimus] | < 5.00 |  | 3 |  |  |
| O=C(O)CN(CC(=O)O)Cc1cc2c(cc1O)Oc1cc(O)c(CN(CC(=O)O)CC(=O)O)cc1C21OC(=O)c2ccccc21 [Oftasceine] | < 5.00 |  | 37 |  |  |
| Candicidin | 5.79 | 91 |  |  |  |
| CC(C)c1c(C(=O)Nc2ccccc2)c(-c2ccccc2)c(-c2ccc(F)cc2)n1CC[C@@H](O)C[C@@H](O)CC(=O)O [atorvastatin] | < 5.00 |  | 4 |  |  |
| CC(=O)O[C@H]1C[C@@H]2CC[C@@H]3[C@H](CC[C@@]4(C)[C@H]3C[C@H]([N+]3(C)CCCCC3)[C@@H]4OC(C)=O)[C@@]2(C)C[C@@H]1[N+]1(C)CCCCC1 [pancuronium] | < 5.00 |  | 11 |  |  |
| C[C@H](N)C(=O)NCC(=O)N[C@H]1CSSC[C@@H](C(=O)O)NC(=O)[C@H](CO)NC(=O)[C@H]([C@@H](C)O)NC(=O)[C@H](Cc2ccccc2)NC(=O)[C@H]([C@@H](C)O)NC(=O)[C@H](CCCCN)NC(=O)[C@H](Cc2c[nH]c3ccccc23)NC(=O)[C@H](Cc2ccccc2)NC(=O)[C@H](Cc2ccccc2)NC(=O)[C@H](CC(N)=O)NC(=O)[C@H](CCCCN)NC1=O [somatostatin] |  |  |  | < 5.00 | 5 |
| CC(C)c1nc(CN(C)C(=O)N[C@@H](CCN2CCOCC2)C(=O)N[C@H](CC[C@H](Cc2ccccc2)NC(=O)OCc2cncs2)Cc2ccccc2)cs1 [Cobicistat] | < 5.00 |  | 24 |  |  |
| Cc1ccccc1-c1cc(N2CCN(C)CC2)ncc1N(C)C(=O)C(C)(C)c1cc(C(F)(F)F)cc(C(F)(F)F)c1 [netupitant] | < 5.00 |  | 12 |  |  |
| CCC[C@H](NC(=O)[C@@H]1[C@H]2CCC[C@H]2CN1C(=O)[C@@H](NC(=O)[C@@H](NC(=O)c1cnccn1)C1CCCCC1)C(C)(C)C)C(=O)C(=O)NC1CC1 [telaprevir] |  |  |  | < 5.00 | 3 |

The next lines start with results.

| pIC50 [1] | % Inhibition [2] [%] | inhibition at 10 µM [3] [%] | Molecule | pIC50 | inhibition at 10 µM (pH 8.5) [%] |
| --- | --- | --- | --- | --- | --- |
| 5.24 | 98 |  | Verteporfin |  |  |
| 5.40 | 71 |  | CCCCCCCCCCCCCC(=O)OCC(COP(=O)(O)OCC(O)CO)OC(=O)CCCCCCCCCCCCC (racemic) [DL-dimyristoylphosphatidylglycerol] |  |  |
| < 5.00 |  | 5 | CC(C)(C)CC(C)(C)c1cc(Cc2cc(C(C)(C)CC(C)(C)C)cc(-n3nc4ccccc4n3)c2O)c(O)c(-n2nc3ccccc3n2)c1 [bisoctrizole] |  |  |
| < 5.00 |  | 24 | C[C@@H]1CC(=O)NN=C1c1ccc(NN=C(C#N)C#N)cc1 [Levosimendan] |  |  |
| < 5.00 |  | 3 | C[C@@H]1C/C=C/C=C/C=C/C=C/[C@H](O[C@@H]2O[C@H](C)[C@@H](O)[C@H](N)[C@@H]2O)C[C@@H]2O[C@](O)(C[C@@H](O)C[C@H]3O[C@@H]3/C=C/C(=O)O1)C[C@H](O)[C@H]2C(=O)O [natamycin] |  |  |
| < 5.00 |  | 33 | CO[C@H]1C[C@@H]2CC[C@@H](C)[C@@](O)(O2)C(=O)C(=O)N2CCCC[C@H]2C(=O)O[C@H]([C@H](C)C[C@@H]2CC[C@@H](OCCO)[C@H](OC)C2)CC(=O)[C@H](C)/C=C(\C)[C@@H](O)[C@@H](OC)C(=O)[C@H](C)C[C@H](C)/C=C/C=C/C=C/1C [Everolimus] |  |  |
| < 5.00 |  | 2 | C#C[C@]1(O)CC[C@H]2[C@@H]3CCC4=CC(=O)CC[C@@H]4[C@H]3C(=C)C[C@@]21CC [etonogestrel] |  |  |
| 5.36 |  | 79 | Cc1cc(-c2ccc(/N=N/c3c(S(=O)(=O)O)cc4cc(S(=O)(=O)O)cc(N)c4c3O)c(C)c2)ccc1/N=N/c1c(S(=O)(=O)O)cc2cc(S(=O)(=O)O)cc(N)c2c1O [trypan blue free acid] |  |  |
| 5.51 | 85 |  | Cyanocobalamin |  |  |
| < 5.00 |  | 1 | O=C1CCCC(=O)C1C(=O)c1ccc(C(F)(F)F)cc1[N+](=O)[O-] [nitisinone] |  |  |
| 5.53 |  | 74 | CC1(C)C(/C=C/C=C/C=C/C=C2\N(CCCCS(=O)(=O)O)c3ccc4ccccc4c3C2(C)C)=[N+](CCCCS(=O)(=O)[O-])c2ccc3ccccc3c21 [indocyanine green acid form] |  |  |
| < 5.00 | 2 |  | hyaluronic acid |  |  |
| 6.47 |  | 92 | O=C(OC[C@H]1O[C@@H](OC(=O)c2cc(O)c(O)c(OC(=O)c3cc(O)c(O)c(O)c3)c2)[C@H](OC(=O)c2cc(O)c(O)c(OC(=O)c3cc(O)c(O)c(O)c3)c2)[C@@H](OC(=O)c2cc(O)c(O)c(OC(=O)c3cc(O)c(O)c(O)c3)c2)[C@@H]1OC(=O)c1cc(O)c(O)c(OC(=O)c2cc(O)c(O)c(O)c2)c1)c1cc(O)c(O)c(OC(=O)c2cc(O)c(O)c(O)c2)c1 [tannic acid] |  |  |
| 5.75 |  | 85 | CCCCCCCC/C=C\CCCCCCCC(=O)O[C@H](COC(=O)CCCCCCCCCCCCCCC)COP(=O)(O)OCC(O)CO (mixture of isomers) [1-palmitoyl-2-oleoyl-sn-glycero-3-(phospho-rac-(1-glycerol))] |  |  |
| 5.56 |  | 80 | CO[C@H]1O[C@H](COS(=O)(=O)O)[C@@H](O[C@@H]2O[C@@H](C(=O)O)[C@@H](O[C@H]3O[C@H](COS(=O)(=O)O)[C@@H](O[C@@H]4O[C@H](C(=O)O)[C@@H](O[C@H]5O[C@H](COS(=O)(=O)O)[C@@H](O)[C@H](O)[C@H]5NS(=O)(=O)O)[C@H](O)[C@H]4O)[C@H](OS(=O)(=O)O)[C@H]3NS(=O)(=O)O)[C@H](O)[C@H]2OS(=O)(=O)O)[C@H](O)[C@H]1NS(=O)(=O)O [Fondaparinux] |  |  |
| < 5.00 |  | 11 | CCc1c(Cl)c(O)c(Cl)c(O)c1C(=O)O[C@H]1[C@H](O)[C@H](OC)[C@H](OC/C2=C\C=C\C[C@H](O)/C(C)=C/[C@H](CC)[C@@H](O[C@@H]3OC(C)(C)[C@@H](OC(=O)C(C)C)[C@H](O)[C@@H]3O)/C(C)=C/C(C)=C/C[C@@H]([C@@H](C)O)OC2=O)O[C@@H]1C [fidaxomicin] |  |  |
| < 5.00 |  | 1 | CC[C@H](C)[C@@H]1NC(=O)[C@H](Cc2ccc(OC)cc2)NC(=O)CCCSC[C@@H](C(=O)N2CCC[C@H]2C(=O)N[C@@H](CC(C)C)C(=O)NCC(N)=O)NC(=O)[C@H](CC(N)=O)NC(=O)[C@H](CCC(N)=O)NC1=O [carbetocin] (Y(Me)IQNCPLG-NH2; linker N-5 via X1) |  |  |
